The structures appear in SMILES notation. ≈ marks a conversion by molar mass, not a printed value.

What all share (type): functional
The test system of test [1] is Staphylococcus aureus. Briefly: Antibacterial activity against methicillin-resistant Staphylococcus aureus N315 assessed as inhibition of bacterial growth by two fold serial dilution method.
The subject of a further test is Enterococcus faecalis. Briefly: Antibacterial activity against Enterococcus faecalis assessed as inhibition of bacterial growth by two fold serial dilution method.
Test [2] deals with Staphylococcus aureus. Briefly: Antibacterial activity against Staphylococcus aureus assessed as inhibition of bacterial growth by two fold serial dilution method.
In test [3] the test system is Staphylococcus aureus. In words: Antibacterial activity against Staphylococcus aureus 25923 assessed as inhibition of bacterial growth by two fold serial dilution method.
The subject of test [4] is Staphylococcus aureus. In words: Antibacterial activity against Staphylococcus aureus 29213 assessed as inhibition of bacterial growth by two fold serial dilution method.
Test [5] concerns Klebsiella pneumoniae. In words: Antibacterial activity against Klebsiella pneumoniae assessed as inhibition of bacterial growth by two fold serial dilution method.
The test system of test [6] is Escherichia coli. Briefly: Antibacterial activity against Escherichia coli assessed as inhibition of bacterial growth by two fold serial dilution method.
In test [7] the test system is Escherichia coli. Briefly: Antibacterial activity against Escherichia coli 25922 assessed as inhibition of bacterial growth by two fold serial dilution method.
Test [8] has as its system Pseudomonas aeruginosa. Briefly: Antibacterial activity against Pseudomonas aeruginosa assessed as inhibition of bacterial growth by two fold serial dilution method.
Test [9] has as its system Pseudomonas aeruginosa. In words: Antibacterial activity against Pseudomonas aeruginosa 27853 assessed as inhibition of bacterial growth by two fold serial dilution method.
The subject of test [10] is Acinetobacter baumannii. Briefly: Antibacterial activity against Acinetobacter baumannii assessed as inhibition of bacterial growth by two fold serial dilution method.
In test [11] the test system is Acinetobacter baumannii. Briefly: Bactericidal activity against Acinetobacter baumannii assessed as fold increase in MIC value after 16 passages by two fold serial dilution method.
Test [12] concerns Klebsiella pneumoniae. In words: Bactericidal activity against Klebsiella pneumoniae assessed as fold increase in MIC value after 16 passages by two fold serial dilution method.
Another test concerns Candida albicans. Briefly: Antibacterial activity against Candida albicans 90023 assessed as inhibition of bacterial growth.

With `CCn1cc(C(=O)O)c(=O)c2cc(F)c(N3CCNCC3)cc21` [NORFLOXACIN], the MIC (usually the least concentration at which growth counts as inhibited) with Staphylococcus aureus [1] stood at 16 µg/mL (≈ 50.1 µM); with Enterococcus faecalis, 4 µg/mL (≈ 12.5 µM); in the test with Staphylococcus aureus [2], 2 µg/mL (≈ 6.26 µM); with Staphylococcus aureus [3], 1 µg/mL (≈ 3.13 µM); in the test with Staphylococcus aureus [4], 2 µg/mL (≈ 6.26 µM); with Klebsiella pneumoniae [5], 4 µg/mL (≈ 12.5 µM). Also, the MIC is 16 µg/mL (≈ 50.1 µM) in the test on Escherichia coli [6]; 8 µg/mL (≈ 25.1 µM) with Escherichia coli [7]; 2 µg/mL (≈ 6.26 µM) with Pseudomonas aeruginosa [8]; 0.5 µg/mL (≈ 1.57 µM) with Pseudomonas aeruginosa [9]; 8 µg/mL (≈ 25.1 µM) in the test with Acinetobacter baumannii [10]. Besides, the “fold change (FC)” value in the test on Acinetobacter baumannii [11] and in the test with Klebsiella pneumoniae [12] was 32 in each case.
Take `O=c1nc(N(Cc2ccc(Cl)c(Cl)c2)CC(O)(Cn2cncn2)c2ccc(F)cc2F)c(F)c[nH]1` (stereo unspecified): the minimum inhibitory concentration (MIC) in the test with Candida albicans was determined as 8 µM (≈ 4.2 µg/mL).
`CCCCc1nc(Cl)c(C2NC(=O)NC(C)=C2C(=O)OCC)n1Cc1ccc(F)cc1` (stereo unspecified): the minimum inhibitory concentration (MIC) in the test with Staphylococcus aureus [1] was found to be 16 µg/mL (≈ 35.6 µM); in the test on Enterococcus faecalis it was 32 µg/mL (≈ 71.3 µM); in the test with Staphylococcus aureus [2] it was 16 µg/mL (≈ 35.6 µM); in the test on Staphylococcus aureus [3] it was 32 µg/mL (≈ 71.3 µM); in the test on Staphylococcus aureus [4], 32 µg/mL (≈ 71.3 µM); in the test on Klebsiella pneumoniae [5] it was 16 µg/mL (≈ 35.6 µM). The MIC turned out to be 16 µg/mL (≈ 35.6 µM) in the test with Escherichia coli [6]; 16 µg/mL (≈ 35.6 µM) in the test with Escherichia coli [7]; 32 µg/mL (≈ 71.3 µM) in the test on Pseudomonas aeruginosa [8]; 32 µg/mL (≈ 71.3 µM) with Pseudomonas aeruginosa [9]; 32 µg/mL (≈ 71.3 µM) with Acinetobacter baumannii [10].
`C=CCn1c(CCCC)nc(Cl)c1C1NC(=O)NC(C)=C1C(=O)OCC` (stereo unspecified): the MIC in the test on Staphylococcus aureus [1] was determined as 64 µg/mL (≈ 168 µM); in the test with Enterococcus faecalis it was 64 µg/mL (≈ 168 µM); in the test on Staphylococcus aureus [2], 32 µg/mL (≈ 84 µM); in the test on Staphylococcus aureus [3] it was 128 µg/mL (≈ 336 µM); with Staphylococcus aureus [4] it was 64 µg/mL (≈ 168 µM); with Klebsiella pneumoniae [5], 64 µg/mL (≈ 168 µM). The minimum inhibitory concentration (MIC) in the test with Escherichia coli [6] was 64 µg/mL (≈ 168 µM); with Escherichia coli [7], 64 µg/mL (≈ 168 µM); in the test with Pseudomonas aeruginosa [8], 64 µg/mL (≈ 168 µM); in the test on Pseudomonas aeruginosa [9] it was 128 µg/mL (≈ 336 µM); with Acinetobacter baumannii [10], 64 µg/mL (≈ 168 µM).
In the case of `CCCCc1nc(Cl)c(C2NC(=O)NC(C)=C2C(=O)OCC)n1S(=O)(=O)c1ccc(C(C)(C)C)cc1` (stereo unspecified), the MIC with Staphylococcus aureus [1] came out at 64 µg/mL (≈ 119 µM); in the test with Enterococcus faecalis, 128 µg/mL (≈ 238 µM); in the test on Staphylococcus aureus [2], 64 µg/mL (≈ 119 µM); in the test on Staphylococcus aureus [3], 32 µg/mL (≈ 59.6 µM); in the test on Staphylococcus aureus [4], 64 µg/mL (≈ 119 µM); with Klebsiella pneumoniae [5] it was 128 µg/mL (≈ 238 µM). The minimal inhibitory concentration (MIC) in the test on Escherichia coli [6] stood at 64 µg/mL (≈ 119 µM); in the test on Escherichia coli [7] it was 64 µg/mL (≈ 119 µM); in the test with Pseudomonas aeruginosa [8], 256 µg/mL (≈ 477 µM); in the test with Pseudomonas aeruginosa [9], 64 µg/mL (≈ 119 µM); in the test with Acinetobacter baumannii [10], 128 µg/mL (≈ 238 µM).
Take `CCCCc1nc(Cl)c(C2NC(=O)NC(C)=C2C(=O)OCC)n1C` (stereo unspecified): the MIC with Staphylococcus aureus [1] is 64 µg/mL (≈ 180 µM); in the test on Enterococcus faecalis it was 128 µg/mL (≈ 361 µM); in the test with Staphylococcus aureus [2], 32 µg/mL (≈ 90.2 µM); in the test on Staphylococcus aureus [3] it was 256 µg/mL (≈ 721 µM); with Staphylococcus aureus [4], 64 µg/mL (≈ 180 µM); in the test on Klebsiella pneumoniae [5], 128 µg/mL (≈ 361 µM). Besides, the minimal inhibitory concentration (MIC) stood at 128 µg/mL (≈ 361 µM) in the test on Escherichia coli [6]; 64 µg/mL (≈ 180 µM) in the test on Escherichia coli [7]; 64 µg/mL (≈ 180 µM) in the test on Pseudomonas aeruginosa [8]; 256 µg/mL (≈ 721 µM) in the test on Pseudomonas aeruginosa [9]; 64 µg/mL (≈ 180 µM) with Acinetobacter baumannii [10].
For the compound `CCCCc1nc(Cl)c(C2NC(=O)NC(CN(c3nnc(C)s3)S(=O)(=O)c3ccc(N)cc3)=C2C(=O)OCC)[nH]1` (stereo unspecified), the MIC in the test with Staphylococcus aureus [1] was found to be 64 µg/mL (≈ 105 µM); with Enterococcus faecalis, 8 µg/mL (≈ 13.1 µM); in the test on Staphylococcus aureus [2], 128 µg/mL (≈ 210 µM); with Staphylococcus aureus [3], 256 µg/mL (≈ 420 µM); in the test on Staphylococcus aureus [4], 128 µg/mL (≈ 210 µM); in the test on Klebsiella pneumoniae [5], 64 µg/mL (≈ 105 µM). The MIC in the test on Escherichia coli [6] is 128 µg/mL (≈ 210 µM); in the test with Escherichia coli [7], 128 µg/mL (≈ 210 µM); in the test with Pseudomonas aeruginosa [8] it was 64 µg/mL (≈ 105 µM); in the test on Pseudomonas aeruginosa [9], 64 µg/mL (≈ 105 µM); in the test with Acinetobacter baumannii [10] it was 128 µg/mL (≈ 210 µM).
Turning to `CCCCc1nc(Cl)c(C2NC(=O)NC(C)=C2C(=O)OCC)n1S(=O)(=O)c1ccc(C(F)(F)F)cc1` (stereo unspecified), the MIC was determined as 8 µg/mL (≈ 14.6 µM) with Staphylococcus aureus [1]; 16 µg/mL (≈ 29.1 µM) in the test with Enterococcus faecalis; 64 µg/mL (≈ 117 µM) in the test on Staphylococcus aureus [2]; 32 µg/mL (≈ 58.3 µM) with Staphylococcus aureus [3]; 8 µg/mL (≈ 14.6 µM) with Staphylococcus aureus [4]; 64 µg/mL (≈ 117 µM) in the test with Klebsiella pneumoniae [5]. The MIC in the test on Escherichia coli [6] amounted to 32 µg/mL (≈ 58.3 µM); in the test on Escherichia coli [7], 64 µg/mL (≈ 117 µM); with Pseudomonas aeruginosa [8], 32 µg/mL (≈ 58.3 µM); in the test on Pseudomonas aeruginosa [9], 64 µg/mL (≈ 117 µM); with Acinetobacter baumannii [10], 16 µg/mL (≈ 29.1 µM).
As for `CCCCc1nc(Cl)c(C2NC(=O)NC(CN(c3ccc(OC)nn3)S(=O)(=O)c3ccc(N)cc3)=C2C(=O)OCC)[nH]1` (stereo unspecified), the MIC in the test with Staphylococcus aureus [1] is 32 µg/mL (≈ 51.7 µM); in the test on Enterococcus faecalis, 64 µg/mL (≈ 103 µM); in the test on Staphylococcus aureus [2], 32 µg/mL (≈ 51.7 µM); with Staphylococcus aureus [3], 64 µg/mL (≈ 103 µM); in the test with Staphylococcus aureus [4], 64 µg/mL (≈ 103 µM); in the test on Klebsiella pneumoniae [5], 16 µg/mL (≈ 25.8 µM). Also, the MIC turned out to be 128 µg/mL (≈ 207 µM) with Escherichia coli [6]; 64 µg/mL (≈ 103 µM) in the test with Escherichia coli [7]; 128 µg/mL (≈ 207 µM) with Pseudomonas aeruginosa [8]; 16 µg/mL (≈ 25.8 µM) with Pseudomonas aeruginosa [9]; 64 µg/mL (≈ 103 µM) in the test on Acinetobacter baumannii [10].

(Values after ChEMBL document CHEMBL5143590, “Dihydropyrimidinone imidazoles as unique structural antibacterial agents for drug-resistant gram-negative pathogens” (Eur J Med Chem, 2022).)
